Reference: US20180209979A1, “METHOD FOR INDIVIDUALIZED CANCER THERAPY” (INSERM (INSTITUT NATIONAL DE LA SANTE ET DE LA RECHERCHE), priority 2015, published 2018)
pIC50: −log10 of the molar value.

How the values were obtained:
CAL33 cells [1] = test: Clonogenicity assay (clonal growth) of shC, sh1 and sh2 CAL33 cells; type: cell-based, human; settings: for inhibition at 0.1 µM: Homo sapiens, CAL-33, erlotinib 0.1 μmol/L, FIG. 7
Procedure: The mean and standard deviation were calculated for three independent experiments. Statistical analysis was carried out using a t test. […] Dishes were then stained with Giemsa (Fluka) and plates were scanned in order to analyze the results by computer with ImageJ software (NIH, USA).

CAL33 cells [2] = settings: read-out: IC50 of erlotinib, Quesnelle K M et al. 2012; cited from earlier work
head and neck tumors = settings: Agulnik M et al. 2007; cited from earlier work
CAL 33 cells = test: qPCR analysis of pro-angiogenic/pro-inflammatory genes induced by TRF2 silencing; type: cell-based, human; settings: shC cells = 100
Excerpt: (§1) To further analyze the effect of TRF2 knock-down on cell proliferation, invasion capabilities and treatment response, CAL 33 cells expressing shRNA against TRF2 and dominant negative forms of TRF2 were generated (Biroccio A et al. Nat Cell Biol 2013; 15(7):818-28). CAL 33 cells were infected using lentiviral vector (pLKOpuro-3×LacO, Sigma). The plasmids contained scramble (shC; SEQ ID No1) or TRF2-specific shRNA, sh1 (SEQ ID No2) or sh2 (SEQ ID No3).

CAL33LUC cells = test: Tumor xenograft formation, size evaluation and tumor section analysis; type: in vivo; settings: 10^6 CAL33LUC cells subcutaneously in nude mice, versus shC, FIG. 5
Procedure: 10^6 cells were injected subcutaneously into the flanks of 5-week-old nude (nu/nu) female mice (Janvier). Bioluminescence was quantified using the In Vivo Imaging System (Perkin Elmer) according to the manufacturer's instructions. Tumor volume [(v ¼ L l^2 0.52] was determined in parallel using a caliper. There was a linear relationship between values for bioluminescence and the tumor volume.
Immuno-histochemical staining for TRF2 was carried out in 3 μm tissue sections from formalin-fixed, paraffin-embedded tissue blocks. Histopathological analysis was conducted in 3 μm tissue sections colored with Masson's trichrome (blue collagen) and scanned with Leica Slide Path. For each tumor, pictures were taken and the following parameters were analyzed using Leica Slide Path Gateway software: total area of the section, area of necrosis, presence of white blood cells inflammatory infiltrate, presence of red blood cells extravasation, thickness of collagen around vessels, number of vessels.

CAL33 cells [3] = test: Cumulative population doublings of CAL33 cells; type: cell-based, human; settings: FIG. 2B
Procedure: (§2) For cumulative population doublings assays (Nekanti U et al. Int J Biol Sci 2010; 6(5):499-512.) 10^5 cells were grown in 7.5% FCS-DMEM medium for 28 days at 37° C. and 5% CO2 in Petri boxes 100 mm diameter. Cells were counted each day (Coulter, Beckman) and media were changed every five days. Cells at each passage was calculated as a ratio of total number of cells harvested to total number of cells seeded multiplied by the total number of cells from the previous passage. Population doublings were calculated using the formula: […]
(§3) in which NI is the inoculum cell number and NH the cell harvest number.
(§4) To yield the cumulated doubling level, the population doubling for each passage was calculated and then added to the population doubling levels of the previous passages. The population doubling time was obtained by the formula: […]
(§5) In which NI is the inoculum cell number; NH is the cell harvest number and t is the time of the culture (in hours).

CAL27 cells = test: Cumulative population doublings of CAL27 cells; type: cell-based, human; settings: FIG. 3B
Procedure: as §2, §3, §4, §5

TRF2 = TRF2 knock-down tested by immunoblotting in CAL33 cells; type: cell-based, human; settings: FIG. 2A
Excerpt: as §1
The following antibodies were used for Western blotting: anti-phospho ERK 1,2 (Sigma St Louis, Mo.), anti-phospho Akt, anti-Akt, anti-EGFR (Cell Signaling, Cambridge, UK,), anti-ERKs (Santa Cruz Biotechnology, Santa Cruz, Calif.)), anti-TRF2 (Novus bio, Cambridge, UK) and alpha-tubulin (Fischer scientific, Illkirch France).

| Molecule | percentage expression of 36B4 (CAL 33 cells) [%] | percentage expression of CXCL1 (CAL 33 cells) | percentage expression of CXCL7 (CAL 33 cells) | percentage expression of CXCL8 (CAL 33 cells) | percentage expression of CXCL9 (CAL 33 cells) | percentage expression of GAPDH (CAL 33 cells) [%] | percentage expression of IL6 (CAL 33 cells) | percentage expression of PDGF-BB (CAL 33 cells) | percentage expression of RANTES (CAL 33 cells) | percentage expression of TRF2 (CAL 33 cells) [%] | percentage expression of m-RPLP0 (CAL 33 cells) [%] | tumor growth / tumor size (bioluminescence) (CAL33LUC cells) | proliferation (cumulative population doublings) (CAL33 cells [3]) | proliferation (cumulative population doublings) (CAL27 cells) | also measured |
| --- | --- | --- | --- | --- | --- | --- | --- | --- | --- | --- | --- | --- | --- | --- | --- |
| O=c1[nH]cc(F)c(=O)[nH]1 [5 FU] | – | – | – | – | – | – | – | – | – | – | – | – | – | – | influence of TRF2 knock-down on the efficacy of the drug (clonal growth) (CAL33 cells [1]; shC, sh1 and sh2 CAL33 cells, FIG. 6B): no influence |
| C#Cc1cccc(Nc2ncnc3cc(OCCOC)c(OCCOC)cc23)c1 [erlotinib] | – | – | – | – | – | – | – | – | – | – | – | – | – | – | inhibition at 0.1 µM (CAL33 cells [1]; sh1 CAL33 cells (TRF2 knock-down)): 40%; inhibition at 0.1 µM (CAL33 cells [1]; sh2 CAL33 cells (TRF2 knock-down)): 50%; pIC50 (CAL33 cells [2]): 5.27; patients with an objective response to the treatment (head and neck tumors): 50% |
| sh1: TRF2-specific shRNA encoded by DNA of SEQ ID No2, expressed from lentiviral vector (DNA GCCAGAATATCATTAGCGTTTCTCGAGAAACGCTAATGATATTCTGGC) | 100 | 380(***) % | 110% | 350(***) % | 210(**) % | 100 | 400(***) % | 150(*) % | 270(***) % | 70 | 100 | decreases tumor growth | does not impair CAL33 proliferation | does not impair CAL27 proliferation | – |
| sh2: TRF2-specific shRNA encoded by DNA of SEQ ID No3, expressed from lentiviral vector (DNA GCGCATGACAATAAGCAGATTCTCGAGAATCTGCTTATTGTCATGCGC) | 100 | 370(***) % | 120(*) % | 1100(***) % | 600(***) % | 100 | 1000(***) % | 190(***) % | 190(***) % | 40 | 100 | decreases tumor growth | does not impair CAL33 proliferation | does not impair CAL27 proliferation | tumor growth / tumor size (bioluminescence) (CAL33LUC cells; listed as shTRF2 #2): smallest tumors; efficacy in knocking-down TRF2 (TRF2): most efficient |
